Experimental data from ChEMBL document CHEMBL5608235, “Tricyclic Benzo[1,3]oxazinyloxazolidinones as Potent Antibacterial Agents against Drug-Resistant Pathogens” (J Med Chem, 2024).
≈ marks a conversion by molar mass, not a printed value. Calls of active or inactive are those of the source. No cut-off for these calls is given here.

What was measured:
[1] = tested on: Mycobacterium tuberculosis; assay: Antibacterial activity against Mycobacterium tuberculosis H37Rv assessed as inhibition of bacterial growth incubated for 7 days by alamar blue assay; assay type: functional; details: 168 h, time 7 day
[2] = tested on: Enterococcus faecalis; assay: Antibacterial activity against Enterococcus faecalis ATCC29212 assessed as inhibition of bacterial growth incubated for 18 hrs by microdilution broth assay; assay type: functional
[3] = tested on: Staphylococcus epidermidis; assay: Antibacterial activity against Staphylococcus epidermidis ATCC12228 assessed as inhibition of bacterial growth incubated for 18 hrs by microdilution broth assay; assay type: functional
[4] = tested on: Staphylococcus aureus; assay: Antibacterial activity against Staphylococcus aureus ATCC25923 assessed as inhibition of bacterial growth incubated for 18 hrs by microdilution broth assay; assay type: functional
[5] = tested on: Bacillus subtilis; assay: Antibacterial activity against Bacillus subtilis ATCC6633 assessed as inhibition of bacterial growth incubated for 18 hrs by microdilution broth assay; assay type: functional
[6] = tested on: Staphylococcus aureus; assay: Antibacterial activity against methicillin resistant Staphylococcus aureus clinical isolate 20-1 assessed as inhibition of bacterial growth incubated for 7 days by alamar blue assay; assay type: functional; details: clinical isolate 20-1, 168 h, time 7 day
[7] = tested on: Enterococcus; assay: Antibacterial activity against vancomycin resistant Enterococcus clinical isolate 20-1 assessed as inhibition of bacterial growth incubated for 7 days by alamar blue assay; assay type: functional; details: clinical isolate 20-1, 168 h, time 7 day
[8] = tested on: Staphylococcus aureus; assay: Antibacterial activity against methicillin resistant Staphylococcus aureus clinical isolate 20-2 assessed as inhibition of bacterial growth incubated for 7 days by alamar blue assay; assay type: functional; details: clinical isolate 20-2, 168 h, time 7 day
[9] = tested on: Enterococcus faecalis; assay: Antibacterial activity against Linezolid resistant Enterococcus faecalis clinical isolate 20-2 assessed as inhibition of bacterial growth incubated for 7 days by alamar blue assay; assay type: functional; details: clinical isolate 20-2, 168 h, time 7 day
[10] = tested on: Staphylococcus aureus; assay: Antibacterial activity against vancomycin intermediate Staphylococcus aureus ATCC700699 assessed as inhibition of bacterial growth incubated for 7 days by alamar blue assay; assay type: functional; details: ATCC700699, 168 h, time 7 day
[11] = tested on: Staphylococcus epidermidis; assay: Antibacterial activity against methicillin resistant Staphylococcus epidermidis clinical isolate 20-2 assessed as inhibition of bacterial growth incubated for 7 days by alamar blue assay; assay type: functional; details: clinical isolate 20-2, 168 h, time 7 day
[12] = tested on: Staphylococcus aureus; assay: Antibacterial activity against Linezolid resistant Staphylococcus aureus clinical isolate 20-1 assessed as inhibition of bacterial growth incubated for 7 days by alamar blue assay; assay type: functional; details: clinical isolate 20-1, 168 h, time 7 day
[13] = Cytotoxicity against African green monkey Vero cells incubated for 48 hrs by MTT assay; assay type: toxicity, cell-based, Chlorocebus sabaeus
[14] = tested on: Enterococcus faecalis; assay: Antibacterial activity against Linezolid resistant Enterococcus faecalis clinical isolate 20-1 assessed as inhibition of bacterial growth incubated for 7 days by alamar blue assay; assay type: functional; details: clinical isolate 20-1, 168 h, time 7 day
[15] = tested on: Staphylococcus epidermidis; assay: Antibacterial activity against methicillin resistant Staphylococcus epidermidis clinical isolate 20-1 assessed as inhibition of bacterial growth incubated for 7 days by alamar blue assay; assay type: functional; details: clinical isolate 20-1, 168 h, time 7 day
[16] = tested on: Staphylococcus aureus; assay: Antibacterial activity against Linezolid resistant Staphylococcus aureus clinical isolate 20-2 assessed as inhibition of bacterial growth incubated for 7 days by alamar blue assay; assay type: functional; details: clinical isolate 20-2, 168 h, time 7 day
[17] = Metabolic stability in human liver microsomes assessed as substrate remaining at 10 uM incubated for 60 mins in presence of NADPH by LC-MS/MS analysis; assay type: ADME, Microsome; details: read-out: Stability
[18] = Metabolic stability in ICR mouse liver microsomes assessed as substrate remaining at 10 uM incubated for 60 mins in presence of NADPH by LC-MS/MS analysis; assay type: ADME, Microsome; details: read-out: Stability
[19] = tested on: Cell membrane; assay: Disruption of cell membrane in methicillin resistant Staphylococcus aureus ATCC 33592 assessed as cell lysis at MIC incubated for 6 hrs by Scanning electron microscopic analysis; assay type: cell membranes
[20] = Oral bioavailability in BALB/c mouse at 10 mg/kg administration measured upto 24 hrs by LC-MS/MS analysis; assay type: ADME, organism-based; details: BALB/c, in vivo
[21] = Metabolic stability in human liver microsomes assessed as compound remaining at 10 uM incubated for 60 mins in absence of NADPH by LC-MS/MS analysis; assay type: ADME, Microsome; details: read-out: Stability
[22] = Metabolic stability in ICR mouse liver microsomes assessed as compound remaining at 10 uM incubated for 60 mins in absence of NADPH by LC-MS/MS analysis; assay type: ADME, Microsome; details: read-out: Stability

COc1ccc(-c2c(F)cc3c(c2F)CN2C(=O)O[C@@H](CNC(C)=O)[C@@H]2O3)cn1
MIC [1]: 6.75 µg/mL (≈ 16.7 µM)
MIC [2]: 0.5 µg/mL (≈ 1.23 µM)
MIC [3]: 0.5 µg/mL (≈ 1.23 µM)
MIC [4]: 8 µg/mL (≈ 19.7 µM)
MIC [5]: 0.032 µg/mL (≈ 0.0789 µM)

CC(=O)NC[C@@H]1OC(=O)N2Cc3c(cc(F)c(-c4ccc(-c5nnn(C)n5)nc4)c3F)O[C@@H]12
MIC [6]: 1 µg/mL (≈ 2.19 µM)
MIC [7]: 1 µg/mL (≈ 2.19 µM)
MIC [1]: 0.74 µg/mL (≈ 1.62 µM)
MIC [8]: 1 µg/mL (≈ 2.19 µM)
MIC [9]: 2 µg/mL (≈ 4.37 µM)
MIC [10]: 1 µg/mL (≈ 2.19 µM)
MIC [11]: 0.5 µg/mL (≈ 1.09 µM)
MIC [12]: 8 µg/mL (≈ 17.5 µM)
IC50 at 48 h [13]: > 64 µg/mL
MIC [14]: 2 µg/mL (≈ 4.37 µM)
MIC [2]: 2 µg/mL (≈ 4.37 µM)
MIC [15]: 0.5 µg/mL (≈ 1.09 µM)
MIC [16]: 8 µg/mL (≈ 17.5 µM)
MIC [3]: 2 µg/mL (≈ 4.37 µM)
MIC [4]: 1 µg/mL (≈ 2.19 µM)
MIC [5]: 0.125 µg/mL (≈ 0.273 µM)

Cc1ncc2n1-c1ccc(Cl)cc1C(c1ccccc1F)=NC2 [MIDAZOLAM]
remaining at 1 h, 10 µM [17]: 62%
remaining at 1 h, 10 µM [18]: 48.9%

CCCCCCCCCC(=O)N[C@@H](Cc1c[nH]c2ccccc12)C(=O)N[C@H](CC(N)=O)C(=O)N[C@@H](CC(=O)O)C(=O)N[C@@H]1C(=O)NCC(=O)N[C@@H](CCCN)C(=O)N[C@@H](CC(=O)O)C(=O)N[C@H](C)C(=O)N[C@@H](CC(=O)O)C(=O)NCC(=O)N[C@H](CO)C(=O)N[C@@H]([C@H](C)CC(=O)O)C(=O)N[C@@H](CC(=O)c2ccccc2N)C(=O)O[C@@H]1C
Activity [19]: Active

COC(=O)NC[C@@H]1OC(=O)N2Cc3cc(-c4ccc(C(C)=O)cc4)c(F)cc3O[C@@H]12
MIC [1]: 1.74 µg/mL (≈ 4.2 µM)
MIC [2]: 0.5 µg/mL (≈ 1.21 µM)
MIC [3]: 0.5 µg/mL (≈ 1.21 µM)
MIC [4]: > 64 µg/mL
MIC [5]: 0.125 µg/mL (≈ 0.302 µM)

CC(=O)Nc1ccc(O)cc1 [ACETAMINOPHEN]
bioavailability [20]: 27.6%

Cn1nnc(-c2ccc(-c3c(F)cc4c(c3F)CN3C(=O)O[C@@H](CN)[C@@H]3O4)cn2)n1
MIC [1]: 0.74 µg/mL (≈ 1.78 µM)
IC50 at 48 h [13]: 16 µg/mL (≈ 38.5 µM)
MIC [2]: > 64 µg/mL
MIC [3]: 64 µg/mL (≈ 154 µM)
MIC [4]: > 64 µg/mL
MIC [5]: 64 µg/mL (≈ 154 µM)

CC(=O)NC[C@@H]1OC(=O)N2Cc3cc(-c4ccc5c(c4)NC(=O)CO5)c(F)cc3O[C@@H]12
MIC [1]: 0.9 µg/mL (≈ 2.11 µM)
IC50 at 48 h [13]: 40 µg/mL (≈ 93.6 µM)
MIC [2]: 1 µg/mL (≈ 2.34 µM)
MIC [3]: 2 µg/mL (≈ 4.68 µM)
MIC [4]: 32 µg/mL (≈ 74.9 µM)
MIC [5]: 16 µg/mL (≈ 37.4 µM)

CC(=O)NC[C@@H]1OC(=O)N2Cc3c(cc(F)c(-c4ccc(C#N)cc4)c3F)O[C@@H]12
MIC [1]: 3.41 µg/mL (≈ 8.54 µM)
MIC [2]: 0.25 µg/mL (≈ 0.626 µM)
MIC [3]: 1 µg/mL (≈ 2.5 µM)
MIC [4]: 2 µg/mL (≈ 5.01 µM)
MIC [5]: 0.032 µg/mL (≈ 0.0801 µM)

CC(=O)NC[C@@H]1OC(=O)N2Cc3c(cc(F)c(-c4ccc(C(C)=O)cc4)c3F)O[C@@H]12
MIC [1]: 0.93 µg/mL (≈ 2.23 µM)
IC50 at 48 h [13]: > 64 µg/mL
MIC [2]: 0.25 µg/mL (≈ 0.6 µM)
MIC [3]: 0.25 µg/mL (≈ 0.6 µM)
MIC [4]: 4 µg/mL (≈ 9.61 µM)
MIC [5]: 0.125 µg/mL (≈ 0.3 µM)

CC(=O)NC[C@@H]1OC(=O)N2Cc3cc(-c4ccc(C(F)(F)F)nc4)c(F)cc3O[C@@H]12
MIC [1]: 6.7 µg/mL (≈ 15.8 µM)
MIC [2]: 1 µg/mL (≈ 2.35 µM)
MIC [3]: 0.5 µg/mL (≈ 1.18 µM)
MIC [4]: 32 µg/mL (≈ 75.2 µM)
MIC [5]: 1 µg/mL (≈ 2.35 µM)

CC(=O)NC[C@H]1OC(=O)N2Cc3c(cc(F)c(-c4ccc(-c5nnn(C)n5)nc4)c3F)O[C@H]12
MIC [1]: > 32 µg/mL
MIC [2]: > 64 µg/mL
MIC [3]: > 64 µg/mL
MIC [4]: > 64 µg/mL
MIC [5]: > 64 µg/mL

COC(=O)NC[C@@H]1OC(=O)N2Cc3cc(-c4ccc(C#N)nc4)c(F)cc3O[C@@H]12
MIC [6]: 0.5 µg/mL (≈ 1.26 µM)
MIC [7]: 1 µg/mL (≈ 2.51 µM)
MIC [1]: 0.97 µg/mL (≈ 2.44 µM)
MIC [8]: 0.5 µg/mL (≈ 1.26 µM)
MIC [9]: 4 µg/mL (≈ 10 µM)
MIC [10]: 1 µg/mL (≈ 2.51 µM)
remaining at 1 h, 10 µM [21]: 114%
MIC [11]: 0.25 µg/mL (≈ 0.628 µM)
MIC [12]: 16 µg/mL (≈ 40.2 µM)
IC50 at 48 h [13]: 33 µg/mL (≈ 82.8 µM)
MIC [14]: 4 µg/mL (≈ 10 µM)
remaining at 1 h, 10 µM [22]: 113%
remaining at 1 h, 10 µM [17]: 103%
MIC [2]: 0.5 µg/mL (≈ 1.26 µM)
MIC [15]: 0.25 µg/mL (≈ 0.628 µM)
MIC [16]: 16 µg/mL (≈ 40.2 µM)
remaining at 1 h, 10 µM [18]: 116%
MIC [3]: 0.25 µg/mL (≈ 0.628 µM)
MIC [4]: 8 µg/mL (≈ 20.1 µM)
MIC [5]: 0.125 µg/mL (≈ 0.314 µM)
